{"source": "patent US12516058B2", "about": "“Small-molecule compounds for controlling endosomal toll-like receptors and therapeutic agent for autoimmune diseases using same” (priority 2020, dated 2026)", "key": {"TLR2/6": {"molecular_target": "T1, TLR2/6 (Mus musculus, UniProt Q9EPW9+Q9QUN7)", "T1 construct": "endogenous in cells; host or cells: RAW 264.7", "T1 sequence (Q9QUN7 25-784)": "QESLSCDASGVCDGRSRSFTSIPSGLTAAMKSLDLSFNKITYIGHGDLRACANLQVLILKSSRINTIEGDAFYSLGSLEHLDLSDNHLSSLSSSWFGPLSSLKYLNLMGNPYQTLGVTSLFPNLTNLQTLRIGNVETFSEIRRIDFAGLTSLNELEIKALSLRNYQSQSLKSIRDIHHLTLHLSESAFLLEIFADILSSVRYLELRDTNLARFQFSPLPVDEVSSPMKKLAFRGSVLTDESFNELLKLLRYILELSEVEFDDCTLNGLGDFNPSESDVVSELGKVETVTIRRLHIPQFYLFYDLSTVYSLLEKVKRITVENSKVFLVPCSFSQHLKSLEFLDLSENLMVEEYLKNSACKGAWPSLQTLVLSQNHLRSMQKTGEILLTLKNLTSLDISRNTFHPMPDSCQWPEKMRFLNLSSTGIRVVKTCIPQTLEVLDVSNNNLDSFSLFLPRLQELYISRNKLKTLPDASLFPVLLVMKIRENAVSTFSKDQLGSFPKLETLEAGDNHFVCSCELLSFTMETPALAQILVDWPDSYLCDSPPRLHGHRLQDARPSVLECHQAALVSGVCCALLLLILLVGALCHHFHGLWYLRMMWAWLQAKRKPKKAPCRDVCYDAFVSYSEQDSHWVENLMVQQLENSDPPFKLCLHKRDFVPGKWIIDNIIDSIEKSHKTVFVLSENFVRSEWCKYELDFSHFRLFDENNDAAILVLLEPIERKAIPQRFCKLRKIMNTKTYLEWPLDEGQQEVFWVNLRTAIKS", "T1 sequence (Q9EPW9 28-795)": "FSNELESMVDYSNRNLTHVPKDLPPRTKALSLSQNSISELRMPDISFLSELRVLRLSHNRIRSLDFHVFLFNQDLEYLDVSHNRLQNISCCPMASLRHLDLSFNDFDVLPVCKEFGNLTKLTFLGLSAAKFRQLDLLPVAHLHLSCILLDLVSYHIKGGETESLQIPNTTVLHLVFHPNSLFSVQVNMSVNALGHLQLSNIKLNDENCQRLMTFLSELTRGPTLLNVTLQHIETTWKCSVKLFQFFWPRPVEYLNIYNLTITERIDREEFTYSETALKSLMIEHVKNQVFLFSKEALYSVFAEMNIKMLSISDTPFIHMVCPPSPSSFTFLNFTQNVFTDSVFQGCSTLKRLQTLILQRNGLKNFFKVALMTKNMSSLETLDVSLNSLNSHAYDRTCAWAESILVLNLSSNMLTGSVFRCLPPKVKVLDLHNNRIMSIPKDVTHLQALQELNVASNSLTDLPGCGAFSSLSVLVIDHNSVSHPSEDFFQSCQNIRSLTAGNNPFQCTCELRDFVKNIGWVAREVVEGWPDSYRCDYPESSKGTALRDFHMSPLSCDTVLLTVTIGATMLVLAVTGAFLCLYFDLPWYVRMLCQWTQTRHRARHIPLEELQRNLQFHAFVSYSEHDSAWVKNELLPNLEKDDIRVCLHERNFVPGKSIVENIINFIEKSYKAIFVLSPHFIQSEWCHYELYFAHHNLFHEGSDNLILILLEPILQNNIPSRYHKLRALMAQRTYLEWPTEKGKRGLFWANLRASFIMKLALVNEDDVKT", "experiment": "TNF-α secretion ELISA after FSL-1 in RAW 264.7 cells", "format": "cell-based", "procedure": "(§1) In order to determine the inhibitory activities of the test-ligand, RAW 264.7 cells were pretreated with each candidate compound for 1 hour, then treated with Pam3CSK4 (synthetic triacyl lipopeptide; TLR1/2, Invitrogen), FSL-1 (synthetic diacyl lipoprotein, TLR2/6, 100 ng/ml), lipopolysaccharide (LPS, TLR4, Sigma Aldrich), imiquimod (IMQ, TLR7, Invitrogen), and ODN2395 (type C CpG repeat motif DNA oligo(5′-[…]-3), TLR9, Bioneer) ligand for 4 hours, and treated with poly I:C (I:C repeat motif double-stranded RNA, TLR3, Invitrogen) and TL8-506 (TLR8, Invitrogen) showing delayed reactivity for 24 hours. After activation of TLR, the supernatant was diluted in an appropriate ratio so as to measure within the standard dose range, transferred to a pre-coated 96-well assay plate, and then treated with mouse TNF-alpha secretion level in accordance with the manufacturer's instructions using a mouse-TNF-alpha ELISA-kit (Invitrogen).\n(§2) In order to determine the inhibitory activities of SK41, SK50, SK58 and SK64 on various TLR signaling pathways, RAW 264.7 cells were cultured along with each compound and then stimulated with different TLR agonists. The TLR agonists used herein were Pam3CSK4 (TLR1/2), FSL-1 (TLR2/6), LPS (TLR4) and FLA-ST (TLR5) as cell surface TLRs, and poly I:C (TLR3) and TL8-506 (TLR8) as endosomal TLRs."}, "TLR4": {"molecular_target": "T2, TLR4 (Mus musculus, UniProt Q9QUK6)", "T2 construct": "endogenous in cells; host or cells: RAW 264.7", "T2 sequence (Q9QUK6 26-835)": "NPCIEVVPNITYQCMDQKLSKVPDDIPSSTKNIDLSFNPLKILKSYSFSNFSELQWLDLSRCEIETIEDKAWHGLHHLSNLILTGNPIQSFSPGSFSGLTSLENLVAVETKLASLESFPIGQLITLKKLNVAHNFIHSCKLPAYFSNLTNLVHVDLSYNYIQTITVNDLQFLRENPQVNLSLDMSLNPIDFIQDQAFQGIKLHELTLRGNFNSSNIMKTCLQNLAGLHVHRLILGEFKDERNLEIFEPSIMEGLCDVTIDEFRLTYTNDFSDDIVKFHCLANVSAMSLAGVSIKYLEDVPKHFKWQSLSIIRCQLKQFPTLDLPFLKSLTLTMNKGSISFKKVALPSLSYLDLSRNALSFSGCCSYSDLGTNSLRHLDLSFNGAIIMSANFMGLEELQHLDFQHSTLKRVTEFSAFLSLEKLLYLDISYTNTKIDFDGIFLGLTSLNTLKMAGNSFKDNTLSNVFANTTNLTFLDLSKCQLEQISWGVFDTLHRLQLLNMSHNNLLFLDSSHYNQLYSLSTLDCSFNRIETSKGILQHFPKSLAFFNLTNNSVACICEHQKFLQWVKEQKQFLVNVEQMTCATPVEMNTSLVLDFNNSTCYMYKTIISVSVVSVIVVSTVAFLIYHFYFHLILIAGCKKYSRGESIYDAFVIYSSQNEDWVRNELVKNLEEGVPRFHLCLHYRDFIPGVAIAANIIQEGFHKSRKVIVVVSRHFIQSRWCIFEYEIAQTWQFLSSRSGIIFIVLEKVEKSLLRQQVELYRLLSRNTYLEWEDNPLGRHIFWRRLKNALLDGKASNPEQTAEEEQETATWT", "T2 sequence (Q9JHF9 19-160 partner)": "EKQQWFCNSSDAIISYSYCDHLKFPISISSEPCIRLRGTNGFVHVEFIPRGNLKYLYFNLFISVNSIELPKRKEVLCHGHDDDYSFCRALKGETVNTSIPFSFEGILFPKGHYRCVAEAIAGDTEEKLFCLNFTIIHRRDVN", "experiment": "TNF-α secretion ELISA after LPS in RAW 264.7 cells", "format": "cell-based", "procedure": "as §1, §2"}, "[1]": {"tested_on": "MRL/lpr (MRL/Fas^lpr) mice", "experiment": "MRL/lpr systemic lupus erythematosus mouse model, oral administration", "format": "in vivo", "settings": "for change in body weight (index for long-term administration toxicity): daily oral, monitored at 3-day intervals; for visual therapeutic effects: oral once a day, SK series 30 mg/Kg, HCQ 60 mg/Kg; for antinuclear antibody (ANA) in blood plasma / C3 complement in blood plasma: end of experiment, ELISA, vs vehicle and HCQ 60 mg/Kg; for antinuclear antibody (ANA) in blood plasma: reaches normal as it decreases; for C3 complement in blood plasma: reaches normal as it increases; for visual (apparent) healing effect: oral once a day for 4 weeks, 15 mg/Kg for SK series and HCQ", "procedure": "14-weeks-old, 36-40 g, female MRL/lpr (or MRL/Fas^lpr) mice (purchased from the Jackson Laboratory, USA through Orient Bio) were used for the lupus treatment effect experiment and breeding was performed in accordance with the breeding and ethics regulations of the Laboratory Animal Research Center of the Ajou University Medical Center. Prior to the experiment, 4 to 5 animals were randomly assigned to each of a negative control group (Vehicle), a positive control group (HCQ), and an experimental compound group (SK41, SK50, SK58 and SK64) for blinding, and each of SK41, SK50, SK58, and SK64 compounds was completely dissolved in a vehicle consisting of ethanol (ethyl alcohol) 10%, polyethylene glycol 400 40% and sterile distilled water 50%, and then the solution was orally administered to experimental animals.\nAs for the administration method, only the same amount of vehicle was administered to the negative control group, 15-60 MPK (15-60 mg/Kg) of HCQ was administered daily to the positive control group, and SK41, SK50, SK58 and SK64 was administered daily in an amount of 15-30 MPK (15-30 mg/Kg) to the experimental compound group, […] experimental mice were 14 weeks old.\nAs for the sample collection method, the weight of the experimental mice was measured at 3-day intervals, and the mice were subjected to inhalational anesthesia and euthanasia using IFRAN liquid (Hana Pharmaceutical, Korea; ingredient name: Isoflurane) on the day of expiry of 40 days, and then blood, kidney, spleen and axillary lymph nodes and inguinal lymph nodes were collected therefrom.\nBlood samples were collected from the heart of an anesthetized mouse, the serum was extracted therefrom using a serum separation tube and a centrifuge (4,000 rpm, 10 minutes, 4° C.), and blood concentrations of ANA (anti-nuclear Antibody, MyBioSourse, USA) as a lupus severity indicator molecule and C3 complement (MyBioSourse, USA), a comprehensive inflammatory indicator molecule, were measured through enzyme-linked immunosorbent assay (ELISA).\nOrgans were treated with an RNA stabilization agent (RNA Stabilization Reagent, Germany, QUIAGEN) immediately after extraction to preserve the condition and prepare specimens, the organs were imaged and weighed to determine whether or not the organs are damaged and to measure the degree of immune organ hypertrophy, and the sum of the weights of one pair of axillary lymph nodes and one pair of inguinal lymph nodes was recorded as the weight of the lymph nodes."}, "[2]": {"settings": "after administration for 40 days, 30 mg/Kg"}}, "note": "Entries after “also recorded” stand apart in the source; their conditions may differ."}
{"smiles": "COC(=O)c1ccc2c(c1)c1c(N)c3c(nc1n2CCCN(C)C)CCCC3", "note": "[SK64, Methyl 11-amino-6-(3-(dimethylamino)propyl)-2,3,4,6-tetrahydro-1H-indolo[2,3-b]quinolin-9-carboxylate]", "values": [{"measurement": "inhibitory activity against cell surface TLR2/6 (TNF-α secretion)", "setting": "TLR2/6", "result": "did not exhibit a specific inhibitory activity; also recorded: no inhibitory activities"}, {"measurement": "inhibitory activity against cell surface TLR4 (TNF-α secretion)", "setting": "TLR4", "result": "did not exhibit a specific inhibitory activity; also recorded: no inhibitory activities"}, {"measurement": "change in body weight (index for long-term administration toxicity)", "setting": "[1]", "result": "did not exhibit a change in body weight"}, {"measurement": "visual therapeutic effects", "setting": "[1]", "result": "superior to HCQ"}]}
{"smiles": "Cc1ccc2c(c1)c1c(N)c3c(nc1n2CCCN(C)C)CCCC3", "note": "[SK58, 6-(3-(dimethylamino)propyl)-9-methyl-2,3,4,6-tetrahydro-1H-indolo[2,3-b]quinolin-11-amine]", "values": [{"measurement": "inhibitory activity against cell surface TLR2/6 (TNF-α secretion)", "setting": "TLR2/6", "result": "did not exhibit a specific inhibitory activity; also recorded: no inhibitory activities"}, {"measurement": "inhibitory activity against cell surface TLR4 (TNF-α secretion)", "setting": "TLR4", "result": "did not exhibit a specific inhibitory activity; also recorded: no inhibitory activities"}, {"measurement": "appearance of the lymph nodes", "setting": "[1]; [2]", "result": "relatively good"}, {"measurement": "weight of the lymph node", "setting": "[1]; [2]", "result": "relatively less swollen"}, {"measurement": "weight of the spleen", "setting": "[1]; [2]", "result": "relatively less swollen"}, {"measurement": "change in body weight (index for long-term administration toxicity)", "setting": "[1]", "result": "did not exhibit a change in body weight"}, {"measurement": "antinuclear antibody (ANA) in blood plasma", "setting": "[1]", "result": "significant results; also recorded: low antinuclear antibody"}, {"measurement": "C3 complement in blood plasma", "setting": "[1]", "result": "significant results; also recorded: high C3 complement"}, {"measurement": "visual (apparent) healing effect", "setting": "[1]", "result": "superior visual (apparent) healing effect to that of HCQ"}, {"measurement": "visual therapeutic effects", "setting": "[1]", "result": "superior to HCQ"}]}
{"smiles": "Cc1cc2c(N)c3c(nc2n1CCCN(C)C)CCCCCC3", "note": "[SK41, 1-(3-(dimethylamino)propyl)-2-methyl-5,6,7,8,9,10-hexahydro-1H-cycloocta[b]pyrrolo[3,2-e]pyridin-4-amine]", "values": [{"measurement": "inhibitory activity against cell surface TLR2/6 (TNF-α secretion)", "setting": "TLR2/6", "result": "did not exhibit a specific inhibitory activity; also recorded: no inhibitory activities"}, {"measurement": "inhibitory activity against cell surface TLR4 (TNF-α secretion)", "setting": "TLR4", "result": "did not exhibit a specific inhibitory activity; also recorded: no inhibitory activities"}, {"measurement": "appearance of the lymph nodes", "setting": "[1]; [2]", "result": "small inguinal lymph node sizes"}, {"measurement": "change in body weight (index for long-term administration toxicity)", "setting": "[1]", "result": "did not exhibit a change in body weight"}, {"measurement": "antinuclear antibody (ANA) in blood plasma", "setting": "[1]", "result": "significant results"}, {"measurement": "C3 complement in blood plasma", "setting": "[1]", "result": "significant results"}, {"measurement": "visual (apparent) healing effect", "setting": "[1]", "result": "superior visual (apparent) healing effect to that of HCQ"}, {"measurement": "visual therapeutic effects", "setting": "[1]", "result": "superior to HCQ"}]}
{"smiles": "COc1ccc2c(c1)c1c(N)c3c(nc1n2CCCN(C)C)CCCC3", "note": "[SK50, 6-(3-(dimethylamino)propyl)-9-methoxy-2,3,4,6-tetrahydro-1H-indolo[2,3-b]quinolin-11-amine]", "values": [{"measurement": "inhibitory activity against cell surface TLR2/6 (TNF-α secretion)", "setting": "TLR2/6", "result": "did not exhibit a specific inhibitory activity; also recorded: no inhibitory activities"}, {"measurement": "inhibitory activity against cell surface TLR4 (TNF-α secretion)", "setting": "TLR4", "result": "did not exhibit a specific inhibitory activity; also recorded: no inhibitory activities"}, {"measurement": "change in body weight (index for long-term administration toxicity)", "setting": "[1]", "result": "did not exhibit a change in body weight"}]}
